Paper PMC5444710, “Enhancement of radiosensitivity by the novel anticancer quinolone derivative vosaroxin in preclinical glioblastoma models” (Oncotarget, 2017)

Columns and labels:
U87MG xenografts = assay: Subcutaneous xenograft model: tumor weight and time to progression; type: in vivo, female CD1-nu/nu mice; details: for HR (95% CI) for tumor progression: U87MG
Protocol: (§1) Female CD1-nu/nu mice, at 6 weeks of age, were purchased from Charles River (Milan, Italy) under the guidelines established by our institution (University of L’Aquila, Medical School and Science and Technology School Board Regulations, complying with Italian government regulation n.116, January 27, 1992, for the use of laboratory animals). All mice received subcutaneous flank injections (2 each) of 1 × 10^6 U251, U87MG, and T98G cells representing models for MGMT-negative and MGMT-positive cells. Tumor growth was assessed biweekly by measuring tumor diameters with a Vernier caliper (length × width). Tumor weight was calculated according to the formula tumor weight (mg) = tumor volume (mm^3) = d2 × D/2, where d and D are the shortest and longest diameters, respectively. The effects of the treatments were assessed as previously described. At about 10 days after the tumor injection, 30 mice with tumor volumes of 0.5–0.8 cm^3 were randomly divided into 6 groups (5 mice per group with 2 tumors each): (1) control (vehicle); (2) vosaroxin (10 mg/kg every 5 days for 5 weeks intravenous [IV] injection into tail vein; (3) radiotherapy (RT; 4 Gy delivered in a single fraction); (4) vosaroxin in combination with RT; (5) temozolomide (16 mg/kg 5 consecutive days) and (6) temozolomide in combination with RT. Anesthetized tumor-bearing mice received focal irradiation. Irradiation was delivered using an x-ray linear accelerator at a dose rate of 200 cGy/min at room temperature. All mice were shielded with a specially designed lead apparatus to allow irradiation to the right hind limb. At the end of the study (35 days after the start of treatments), animals were sacrificed by carbon dioxide inhalation and tumors were then removed surgically. Half of the tumor was directly frozen in liquid nitrogen for protein analysis and the other half was fixed in paraformaldehyde overnight for immunohistochemical analyses.
(§2) The following parameters were used to quantify the antitumor effects of different treatments as previously described: tumor volume, measured throughout the experiment; tumor weight, measured at the end of the experiment; tumor progression, defined as an increase of greater than 50% of tumor volume with respect to baseline; and time to progression (TTP), defined as the time until tumor progression was observed from baseline. Tumor size was measured with calipers and the TTP of a single tumor was calculated. TTP data were used to generate Kaplan-Meier curves for progression. This method of analysis was described previously, and may reduce both inter-subject variability resulting from differences in engraftment efficacy as well as intra-subject variability in response.
(§3) In vivo drug combination studies were evaluated using CalcuSyn. For CI calculations of dual administration, the values of % cell kill (%CK) for a fixed tumor volume were determined by the log CK (LCK). LCK was calculated as LCK = (T − C) / (3.32 × Td), where Td represented the mean control group doubling time required to reach a fixed tumor volume, expressed in days. T and C were the mean times in days required to reach the same fixed tumor volume in the treated group and the control group, respectively. CK was calculated as %CK = [1 − (1 − 10LCK)] × 100. Tumor growth delay (TGD) was calculated as %TGD = [(T − C) / C] × 100, where T and C were the same values as those reported by Bruzzese et al..

T98G xenografts = assay: as above; type: in vivo, female CD1-nu/nu mice; details: for HR (95% CI) for tumor progression: T98G
Protocol: as §1, §2, §3

U251 xenografts = assay: as above; type: in vivo, female CD1-nu/nu mice; details: for HR (95% CI) for tumor progression: U251
Protocol: as §1, §2, §3

D54 glioma cell line = assay: Inhibition of proliferation (cell viability); type: cell-based; details: Homo sapiens
Protocol: (§4) Cells were seeded at a density of 2 × 10^4 cells/mL in 24-well plates. Cells were […] to attach and grow in 5% fetal bovine serum in DMEM for 24 hours. Cells were treated with different doses of radiation or temozolomide and then maintained in the appropriate culture conditions. At the conclusion of the treatment period, cells were trypsinized and resuspended in 1.0 mL of saline; viable cells were counted using the NucleoCounter^TM NC-100 (Chemotec, […], Denmark). All experiments were conducted in triplicate. IC50 values were calculated using GraFit (Erithacus Software Limited, Staines, UK).

SNB19 glioma cell line = assay: Inhibition of proliferation (cell viability); type: cell-based; details: Homo sapiens, SNB-19
Protocol: as §4

U373 glioma cell line = assay: Inhibition of proliferation (cell viability); type: cell-based; details: Homo sapiens, U373 MG
Protocol: as §4

LN18 glioma cell line = assay: Inhibition of proliferation (cell viability); type: cell-based; details: Homo sapiens, LN-18
Protocol: as §4

U138 glioma cell line = assay: Inhibition of proliferation (cell viability); type: cell-based; details: Homo sapiens
Protocol: as §4

U118 glioma cell line = assay: Inhibition of proliferation (cell viability); type: cell-based; details: Homo sapiens
Protocol: as §4

U87MG glioma cell line = assay: Inhibition of proliferation (cell viability); type: cell-based; details: Homo sapiens, U-87 MG
Protocol: as §4

T98G glioma cell line = assay: Inhibition of proliferation (cell viability); type: cell-based; details: Homo sapiens
Protocol: as §4

SW1783 glioma cell line = assay: Inhibition of proliferation (cell viability); type: cell-based; details: Homo sapiens
Protocol: as §4

SF268 glioma cell line = assay: Inhibition of proliferation (cell viability); type: cell-based; details: Homo sapiens, SF-268
Protocol: as §4

A172 glioma cell line = assay: Inhibition of proliferation (cell viability); type: cell-based; details: Homo sapiens, A 172
Protocol: as §4

U251 glioma cell line = assay: Inhibition of proliferation (cell viability); type: cell-based; details: Homo sapiens, U-251
Protocol: as §4

caspase-3 = assay: Caspase-3 activity (ELISA); type: cell-based, human; details: addition of vosaroxin (IC20) to RT
Protocol: After appropriate treatments, tumor cell cultures and tissues were harvested for analysis of cytokine expression. Cell pellets were washed with PBS and lysed with RIPA buffer. Cell lysates and conditioned media were assayed by ELISA to measure (i) active human caspase-3 (CBA045, Merck Chemicals Ltd., Nottingham, UK), (ii) beclin-1 (E98557Hu, USCN Life Sciences, Houston, TX, USA), and (iii) DNA damage (EpiQuik in situ DNA Damage Assay Kit, Epigentek, Farmingdale, NY, USA).

## CN[C@H]1CN(c2ccc3c(=O)c(C(=O)O)cn(-c4nccs4)c3n2)C[C@@H]1OC [vosaroxin]
U87MG xenografts; U87MG xenografts, day 35, VSR 10 mg/kg q 5 d for 5 wk IV, TMZ 16 mg/kg 5 consecutive days, RT single 4 Gy
  final tumor weight reduction compared with vehicle controls: 44%
U87MG xenografts; VSR vs TMZ + RT
  HR (95% CI) for tumor progression: 0.8 (0.3–2.0)
U87MG xenografts; VSR vs TMZ
  HR (95% CI) for tumor progression: 0.6 (0.2–1.5)
U87MG xenografts; VSR vs VSR + RT
  HR (95% CI) for tumor progression: 4.3 (1.2–15.6)
T98G xenografts; T98G xenografts, day 35, VSR 10 mg/kg q 5 d for 5 wk IV, TMZ 16 mg/kg 5 consecutive days, RT single 4 Gy
  final tumor weight reduction compared with vehicle controls: 60%
T98G xenografts; VSR vs TMZ + RT
  HR (95% CI) for tumor progression: 1.0 (0.4–2.4)
T98G xenografts; VSR vs TMZ
  HR (95% CI) for tumor progression: 0.5 (0.2–1.3)
T98G xenografts; VSR vs VSR + RT
  HR (95% CI) for tumor progression: 4.7 (1.5–14.6)
U251 xenografts; U251 xenografts, day 35, VSR 10 mg/kg q 5 d for 5 wk IV, TMZ 16 mg/kg 5 consecutive days, RT single 4 Gy
  final tumor weight reduction compared with vehicle controls: 42%
U251 xenografts; VSR vs TMZ + RT
  HR (95% CI) for tumor progression: 4.2 (1.4–12.5)
U251 xenografts; VSR vs TMZ
  HR (95% CI) for tumor progression: 0.6 (0.3–1.6)
U251 xenografts; VSR vs VSR + RT
  HR (95% CI) for tumor progression: 4.0 (1.3–12.1)
D54 glioma cell line
  IC50: 190 ± 25.4 nM
SNB19 glioma cell line
  IC50: 35.5 ± 7 nM
U373 glioma cell line
  IC50: 78.4 ± 9.7 nM
LN18 glioma cell line
  IC50: 90 ± 12.5 nM
U138 glioma cell line
  IC50: 65.8 ± 14.6 nM
U118 glioma cell line
  IC50: 88.5 ± 16.7 nM
U87MG glioma cell line
  IC20: 65 nM
  IC50: 141 ± 84.7 nM
T98G glioma cell line
  IC20: 45 nM
  IC50: 64.5 ± 11 nM
SW1783 glioma cell line
  IC50: 260 ± 9.8 nM
SF268 glioma cell line
  IC50: 50.3 ± 12 nM
A172 glioma cell line
  IC50: 125 ± 89.4 nM
U251 glioma cell line
  IC20: 15 nM
  IC50: 18.6 ± 2.4 nM
caspase-3
  caspase-3 activity: increased
